Assay [1] has as its target SMOX (Homo sapiens (Human), UniProt Q9NWM0). As to the kind of experiment: Human SMOX assay (HyPerBlu chemiluminescent detection of hydrogen peroxide). Format: biochemical. Particulars: 2.5 nM full length hSMOX, spermine substrate, 1 h at room temperature, luminescence read; read-out: SMOx_IC50. The method, boiled down:
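Full-length N-His human SMOX (2.5 nM, E. coli-expressed) was incubated 1 h at room temperature with 30 µM spermine, 11-point compound dilutions and 1.25% DMSO in pH 7.4 HEPES/NaCl/EGTA buffer. H2O2 was detected by HyPerBlu chemiluminescence after 30 min, and IC50 came from dose–response fits.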

For assay [2], the target named is hPAOX (Homo sapiens (Human), UniProt Q6QHF9). As to the kind of experiment: Human PAOX assay (HyPerBlu chemiluminescent detection of hydrogen peroxide). Format: biochemical. The following applies: 60 pM recombinant PAOX, 20 μM N-acetylspermine substrate. The method, boiled down: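 His-tagged recombinant PAOX expressed in sf9 insect cells was used at 60 pM, with 20 μM N-acetylspermine as substrate. Hydrogen peroxide formed by the reaction was detected by chemiluminescence from a boronate probe (HyPerBlu). Inhibition appears as lower luminescence.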
Sequence of hPAOX (Q6QHF9 whole entry): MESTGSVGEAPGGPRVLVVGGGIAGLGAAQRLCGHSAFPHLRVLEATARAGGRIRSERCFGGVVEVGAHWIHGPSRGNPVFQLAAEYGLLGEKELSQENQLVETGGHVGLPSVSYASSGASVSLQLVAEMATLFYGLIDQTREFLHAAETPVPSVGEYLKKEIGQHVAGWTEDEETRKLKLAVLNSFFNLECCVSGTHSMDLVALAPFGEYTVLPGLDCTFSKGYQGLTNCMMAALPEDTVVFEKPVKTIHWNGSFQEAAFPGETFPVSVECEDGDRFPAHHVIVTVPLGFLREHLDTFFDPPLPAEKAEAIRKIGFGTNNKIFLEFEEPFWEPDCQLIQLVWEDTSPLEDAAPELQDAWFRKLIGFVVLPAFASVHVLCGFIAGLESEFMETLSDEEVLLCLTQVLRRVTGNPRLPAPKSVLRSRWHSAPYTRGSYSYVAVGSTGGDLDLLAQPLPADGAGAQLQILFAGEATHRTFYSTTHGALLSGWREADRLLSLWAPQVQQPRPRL

Where a name gives a salt, the structure may show the parent alone.

Sequence of SMOX (Q9NWM0 whole entry): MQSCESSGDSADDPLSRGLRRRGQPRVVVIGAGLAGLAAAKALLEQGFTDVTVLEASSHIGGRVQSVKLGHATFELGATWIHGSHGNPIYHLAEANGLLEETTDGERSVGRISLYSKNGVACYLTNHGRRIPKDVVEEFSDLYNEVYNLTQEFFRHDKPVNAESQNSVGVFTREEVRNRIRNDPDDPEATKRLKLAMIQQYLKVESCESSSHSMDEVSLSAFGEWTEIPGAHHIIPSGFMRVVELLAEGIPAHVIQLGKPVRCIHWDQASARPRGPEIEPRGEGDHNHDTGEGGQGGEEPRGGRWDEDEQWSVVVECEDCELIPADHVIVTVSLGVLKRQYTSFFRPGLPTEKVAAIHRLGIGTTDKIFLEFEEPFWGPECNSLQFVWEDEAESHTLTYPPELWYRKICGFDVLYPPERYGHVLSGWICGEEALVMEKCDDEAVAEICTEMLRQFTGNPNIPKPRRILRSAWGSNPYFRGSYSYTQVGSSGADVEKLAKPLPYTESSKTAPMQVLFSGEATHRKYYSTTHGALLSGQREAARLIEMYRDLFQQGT

On to `CC(=O)Nc1ccc(-c2cc(-c3ccccc3)nc3cc(C(=O)NCCCn4ccnc4)nn23)cc1` [Example 95, N-(3-(1H-imidazol-1-yl)propyl)-7-(4-acetamidophenyl)-5-phenylpyrazolo[1,5-a]pyrimidine-2-carboxamide], for which the IC50 in assay [1] was over 31.2 µM; in assay [2], 2.07 µM.

`O=C(NCCCn1ccnc1)c1cc2nc(-c3ccccc3)cc(-c3cccnc3)n2n1` [Example 96, N-(3-(1H-imidazol-1-yl)propyl)-5-phenyl-7-(pyridin-3-yl)pyrazolo[1,5-a]pyrimidine-2-carboxamide]: the figures for the IC50 in assay [1] and in assay [2] were 1.25 µM and 6.91 µM, respectively.

In the case of `O=C(NCCCn1ccnc1)c1cc2nc(-c3ccccc3)cc(-c3ccncc3)n2n1` [Example 97, N-(3-(1H-imidazol-1-yl)propyl)-5-phenyl-7-(pyridin-4-yl)pyrazolo[1,5-a]pyrimidine-2-carboxamide], the IC50 in assay [1] was 4.57 µM; in assay [2], 3.61 µM.

Consider `CN1CC(NC(=O)c2cc3nc(N4CCCC4)cc(-c4ccccc4)n3n2)C1` [Example 98, N-(1-methylazetidin-3-yl)-7-phenyl-5-(pyrrolidin-1-yl)pyrazolo[1,5-a]pyrimidine-2-carboxamide], for which the IC50 in assay [1] was 4.59 µM; in assay [2] it was over 31.2 µM.

For the compound `CN1CC(NC(=O)c2cc3nc(N4CCCCC4)cc(-c4ccccc4)n3n2)C1` [Example 99, N-(1-methylazetidin-3-yl)-7-phenyl-5-(piperidin-1-yl)pyrazolo[1,5-a]pyrimidine-2-carboxamide], the IC50 is 7.71 µM in assay [1] and 7.08 µM in assay [2].

As for `CN1CC(NC(=O)c2cc3nc(N4CCC4)cc(-c4ccccc4)n3n2)C1` [Example 100, 5-(azetidin-1-yl)-N-(1-methylazetidin-3-yl)-7-phenylpyrazolo[1,5-a]pyrimidine-2-carboxamide], the figures for the IC50 in assay [1] and in assay [2] were 4.01 µM and over 31.2 µM, respectively.

`O=C(NCCCn1ccnc1)c1cc2nc(-c3ccc(C(F)(F)F)cc3)cc(-c3ccccc3)n2n1` [Example 101, N-(3-(1H-imidazol-1-yl)propyl)-7-phenyl-5-(4-(trifluoromethyl)phenyl)pyrazolo[1,5-a]pyrimidine-2-carboxamide]: the IC50 in assay [1] was 0.072 µM; in assay [2], 0.181 µM.

With `CN1CC(NC(=O)c2cc3nc(-c4ccccn4)cc(-c4ccccc4)n3n2)C1` [Example 102, N-(1-methylazetidin-3-yl)-7-phenyl-5-(pyridin-2-yl)pyrazolo[1,5-a]pyrimidine-2-carboxamide], the IC50 came out at 1.55 µM in assay [1] and 10 µM in assay [2].

For the compound `CN1CC(NC(=O)c2cc3nc(-c4ccccc4C(F)(F)F)cc(-c4ccccc4)n3n2)C1` [Example 103, N-(1-methylazetidin-3-yl)-7-phenyl-5-(2-(trifluoromethyl)phenyl)pyrazolo[1,5-a]pyrimidine-2-carboxamide], the IC50 in assay [1] amounted to 3.12 µM; in assay [2] it was 0.547 µM.

For the compound `CN1CC(NC(=O)c2cc3nc(-c4ccccc4F)cc(-c4ccccc4)n3n2)C1` [Example 104, 5-(2-fluorophenyl)-N-(1-methylazetidin-3-yl)-7-phenylpyrazolo[1,5-a]pyrimidine-2-carboxamide], the IC50 in assay [1] was 1.29 µM; in assay [2], 1.4 µM.

As to `CN1CC(NC(=O)c2cc3nc(-c4cccc(F)c4)cc(-c4ccccc4)n3n2)C1` [Example 105, 5-(3-fluorophenyl)-N-(1-methylazetidin-3-yl)-7-phenylpyrazolo[1,5-a]pyrimidine-2-carboxamide], the results for the IC50 in assay [1] and in assay [2] were 0.114 µM and 0.666 µM, respectively.

As to `CN1CC(NC(=O)c2cc3nc(-c4ccc(F)cc4)cc(-c4ccccc4)n3n2)C1` [Example 106, 5-(4-fluorophenyl)-N-(1-methylazetidin-3-yl)-7-phenylpyrazolo[1,5-a]pyrimidine-2-carboxamide], the IC50 in assay [1] came to 0.164 µM; in assay [2], 0.485 µM.

In the case of `O=C(NCCCn1ccnc1)c1cc2nc(-c3ccccc3)cc(C3CCCC3)n2n1` [Example 108, N-(3-(1H-imidazol-1-yl)propyl)-7-cyclopentyl-5-phenylpyrazolo[1,5-a]pyrimidine-2-carboxamide], the IC50 in assay [1] was 0.305 µM; in assay [2], 0.84 µM.

In the case of `O=C(NCCCn1ccnc1)c1cc2nc(-c3ccccc3)cc(C3CCC3)n2n1` [Example 109, N-(3-(1H-imidazol-1-yl)propyl)-7-cyclobutyl-5-phenylpyrazolo[1,5-a]pyrimidine-2-carboxamide], the IC50 in assay [1] stood at 0.956 µM; in assay [2] it was 0.47 µM.

Turning to `O=C(NCCCn1ccnc1)c1cc2nc(-c3ccccc3)cc(C3CCCO3)n2n1` (stereo not drawn) [Example 110, N-(3-(1H-imidazol-1-yl)propyl)-5-phenyl-7-(tetrahydrofuran-2-yl)pyrazolo[1,5-a]pyrimidine-2-carboxamide], the IC50 is 1.75 µM in assay [1] and 3.07 µM in assay [2].

On to `CC(C)Cc1cc(-c2ccccc2)nc2cc(C(=O)NCCCn3ccnc3)nn12` [Example 112, N-(3-(1H-imidazol-1-yl)propyl)-7-isobutyl-5-phenylpyrazolo[1,5-a]pyrimidine-2-carboxamide], for which the IC50 in assay [1] stood at 1.63 µM; in assay [2], 1.94 µM.

With `O=C(NCCCn1ccnc1)c1cc2nc(-c3ccccc3)cc(C3CC3)n2n1` [Example 113, N-(3-(1H-imidazol-1-yl)propyl)-7-cyclopropyl-5-phenylpyrazolo[1,5-a]pyrimidine-2-carboxamide], the figures for the IC50 in assay [1] and in assay [2] were 1.2 µM and 2.29 µM, respectively.

With `O=C(NCCCn1ccnc1)c1cc2nc(-c3ccccc3)cc(C3CCCCN3)n2n1` (stereo not drawn) [Example 114, N-(3-(1H-imidazo-1-yl)propyl)-5-phenyl-7-(piperidin-2.yl)pyrazolo[1,5-a]pyrimidine-2-carboxamide], the IC50 came to 0.776 µM in assay [1] and 8.46 µM in assay [2].

Take `O=C(NC1CNC1)c1cc2nc(-c3ccccc3)cc(-c3ccccc3)n2n1` [Example 115, N-(azetidin-3-yl)-5,7-diphenylpyrazolo[1,5-a]pyrimidine-2-carboxamide]: the values for the IC50 in assay [1] and in assay [2] were 0.282 µM and 0.213 µM, respectively.

With `NCCCNC(=O)c1cc2nc(-c3ccccc3)cc(-c3ccccc3)n2n1` [Example 116, N-(3-aminopropyl)-5,7-diphenylpyrazolo[1,5-a]pyrimidine-2-carboxamide], the IC50 in assay [1] turned out to be 0.296 µM; in assay [2] it was 0.119 µM.

As to `O=C(NCC1CCCN1)c1cc2nc(-c3ccccc3)cc(-c3ccccc3)n2n1` (stereo not drawn) [Example 117, 5,7-diphenyl-(pyrrolidin-2-ylmethyl)pyrazolo[1,5-a]pyrimidine-2-carboxamide], the IC50 in assay [1] was found to be 0.142 µM; in assay [2], 0.197 µM.

As to `CNCCCNC(=O)c1cc2nc(-c3ccccc3)cc(-c3ccccc3)n2n1` [Example 118, N-(3-(methylamino)propyl)-5,7-diphenylpyrazolo[1,5-a]pyrimidine-2-carboxamide], the results for the IC50 in assay [1] and in assay [2] were 0.23 µM and 0.103 µM, respectively.

Take `NCCNC(=O)c1cc2nc(-c3ccccc3)cc(-c3ccccc3)n2n1` [Example 119, N-(2-aminoethyl)-5,7-diphenylpyrazolo[1,5-a]pyrimidine-2-carboxamide hydrochloride]: the results for the IC50 in assay [1] and in assay [2] were 0.801 µM and 2.4 µM, respectively.

Consider `CC(CN)CNC(=O)c1cc2nc(-c3ccccc3)cc(-c3ccccc3)n2n1` (stereo not drawn) [Example 120, N-(3-amino-2-methylpropyl)-5,7-diphenylpyrazolo[1,5-a]pyrimidine-2-carboxamide hydrochloride], for which the IC50 came to 0.582 µM in assay [1] and 1.22 µM in assay [2].

In the case of `O=C(NCC1CCNC1)c1cc2nc(-c3ccccc3)cc(-c3ccccc3)n2n1` (stereo not drawn) [Example 121, 5,7-diphenyl-N-(pyrrolidin-3-ylmethyl)pyrazolo[1,5-a]pyrimidine-2-carboxamide], the results for the IC50 in assay [1] and in assay [2] were 0.416 µM and 0.641 µM, respectively.

`O=C(NCCN1CCOCC1)c1cc2nc(-c3ccccc3)cc(-c3ccccc3)n2n1` [Example 122, N-(2-morpholinoethyl)-5,7-diphenylpyrazolo[1,5-a]pyrimidine-2-carboxamide]: the IC50 in assay [1] is 20.6 µM; in assay [2], over 31.2 µM.

As to `Cc1cc(-c2ccccc2)nc2cc(C(=O)NCCCn3ccnc3)nn12` [Example 123, N-(3-(1H-imidazol-1-yl)propyl)-7-methyl-5-phenylpyrazolo[1,5-a]pyrimidine-2-carboxamide], the figures for the IC50 in assay [1] and in assay [2] were 9.77 µM and 4.04 µM, respectively.

The record behind these values is US20250161307A1, “PYRAZOLOPYRIMIDINES AS MODULATORS OF SPERMINE OXIDASE” (Janssen Pharmaceutica NV, priority 2022, published 2025).
